Reference: patent publication US20100240674A1 (priority 2007, published 2010)
Counter-ions that a name gives are not always drawn.

Assays:
[1] = test system: cerebella of NPC mice; test: TUNEL immunofluorescence apoptosis analysis on cerebella; conditions: 50 mg/Kg daily intraperitoneally for 28 days, vs saline
[2] = test system: cerebellar Purkinje neurons
Text: In all experiments discussed herein, “NPC mice” refers to mice deficient in the NPC1 protein or NPC1−/−. In FIG. 1, the cerebellums of 4 week old NPC mice and wild type mice are shown at a, b, g and h. The cerebellums of 6 week old NPC mice and wild type mice are shown at c, d, i and j. The cerebellums of 8 week old NPC mice and wild type mice are shown at e, f, k and l. The immunohistochemical procedures utilized were: anti-c-Abl, (K12; 1:500) and anti-p73 (H-79; 1:250) (Santa Cruz Biotech, Santa Cruz, Calif.), and anti-calbindin D-28K (1:1,000). Immunohistochemical procedures were carried out by means of histological stain on floating sections. Immunocytochemistry was performed using the avidin biotin horseradish peroxidase complex (ABC) method (Vector Laboratories, Burlingame, Calif.) and sections were mounted on gelatin pre-coated slides and air-dried, then dehydrated in graded ethanol and finally covered with Permount.
The immunohistochemical protocols used are the same as those described above relating to FIG. 1.
The following process was used for in situ apoptosis detection: the terminal deoxynucleotidyl transferase mediated deoxyuridine-biotin (dUTP) nick end labeling (TUNEL) was performed using the apoptosis detection kit purchased from Roche Molecular Biochemicals (Mannheim, Germany). The sections were first incubated in a blocking solution containing 3% H2O2 in methanol. Afterward, slices were incubated in 0.1% Triton X-100 in 0.1% sodium citrate over-night at RT to increase the permeability. After being washed twice in PBS, pH 7.4, the sections were immersed in the TUNEL reaction mixture, containing dUTP-fluorescein and terminal deoxynucleotidyl transferase (TdT) conjugated for 60 minutes at 37° C. in a dark, humid atmosphere. The process was terminated by washing the sections twice in PBS buffer. For the immunofluorescence (IF) sections slides were incubated overnight with rabbit polyclonal anti-calbindin D-28K (1:1,000; Chemicon International, Temecula, Calif.). […] Fluorescent images were captured with an Olympus BX51 microscope and analyzed with IMAGE pro-express.

[3] = test system: NPC mice; test: Hanging Test (locomotor activity); type: in vivo; conditions: 50 mg/Kg daily intraperitoneally for 28 days, vs saline
Text: To test locomotor activity, the Hanging Test that has been validated for these mice was used (Voikar et al., 2002). For this test a score from 0 to 5 was assigned to the mice based on their motor capabilities. To determine the score, the animal is observed during 30 seconds, a value is assigned according to the following scale: 0, if it falls before 10 seconds; 1, if it hangs from the bar with its fore paws; 2, if it tries to climb on the bar with its hind paws; 3, if it grabs the bar with its fore paws and one or two hind paws; 4, if it grabs the bar with all four paws and its tail; and 5, if it actively escapes from the bar and reaches one of the ends of the bar.

Question: Which “apoptosis in cerebella (TUNEL)” value [1] does the source give for `Cc1ccc(NC(=O)c2ccc(CN3CCN(C)CC3)cc2)cc1Nc1nccc(-c2cccnc2)n1` [imatinib mesylate, 4-(4-methylpiperazin-1-ylmethyl)-N-[4-methyl-3-((4-pyridin-3-yl)(pyrimidin-2-ylamino)phenyl]benzamide methanesulfonate] here?
Answer: decreases apoptosis

Question: And the “number of TUNEL positive cells” value [1]?
Answer: significantly less

Question: And the “calbindin positive areas for Purkinje neurons” value ([2]; NPC mice, 50 mg/Kg daily intraperitoneally for 28 days, immunofluorescence)?
Answer: significant increase

Question: What about the “death of Purkinje neurons (calbindin immunohistochemistry)” value ([2]; NPC mice, 50 mg/Kg daily intraperitoneally for 28 days, vs saline) of the same compound?
Answer: reduces the death of Purkinje neurons

Question: And the calbindin staining ([2]; mouse, in vivo, ip, 50 mg/kg)?
Answer: does not affect the calbindin staining

Question: And the “Hanging Test score” value ([3]; NPC mice)?
Answer: increased the scores

Question: And the “effect on locomotor activity (Hanging Test)” value ([3]; wild type mice)?
Answer: does not affect the locomotor activity
